B1: pK15 CT^WT: pK15 cytoplasmic tail fused to GST at its N-terminal end, phosphorylated in vitro by Src (protein)
chain: SQLLNEVELQEVNRDPPNVFGYASILVSGAEESREPSPQPDQSGMSILRVDGGSAFRIDTAQAATQPTDDLYEEVLFPRN
modifications: tyrosine-phosphorylated in vitro by Src; sites not stated for this construct; left off: GST, N-terminal, kept

What was measured:
[1] = test system: PLCγ1 tSH2 domain (Src-mediated phosphorylation, Y^783); assay: in vitro Src kinase assay, PLCγ1 tSH2 Y783 phosphorylation; assay type: biochemical; settings: 0.6 μM tSH2, 0.085 μM Src, 1.25–5 μM peptide or fixed 5.0 μM, 37°C, 1 hour or 45 min (method), pY783 Western blot
Method: Fig 7 The pK15 CT domain enhances Src-mediated phosphorylation of the PLCγ1 tSH2 domain. (A) The purified PLCγ1 tSH2 domain (0.6 μM) was incubated with limiting amounts (0.085 μM) of recombinant purified Src kinase expressed in insect cells in the presence of increasing concentrations (1.25–5 μM) of phosphorylated peptides representing the last 12 (pK15 12mer) or 35 (pK15 35mer) amino acids of the pK15 cytoplasmic domain for 1 hour at 37°C. The reaction was stopped using SDS sample buffer and analysed by SDS-PAGE and Western blot using an antibody to the PLCγ1 pY^783 residue (top panel) or to the His tag on the recombinant tSH2 domain (bottom panel). (B) Same as above, except that a fixed concentration (5.0 μM) of the 12mer peptide, the 35mer peptide or the pK15 truncation construct GST-pK15 CT^N2 [51] were used. The increased phosphorylation of the tSH2 domain in the presence of the 35mer peptide and pK15 CT^N2 can be seen. (C) Increasing concentrations of the phosphorylated pK15 12mer peptide were used to inhibit the increased src-mediated phosphorylation of tSH2 induced by 2.5 μM of the pK15 35mer peptide. Experimental conditions were as in panel A.
To test the impact of a pK15 CT fragment (pK15 CT^N2) or phosphorylated pK15 peptides representing the last 12 (DDLp[…]) or 35 ([…]pYEEVLFRN) amino acids of pK15 CT on the Src-mediated phosphorylation of the PLCγ1 tSH2 domain, GST-pK15CT^N2 was first phosphorylated with Src in vitro as described in the preceding paragraph. Phosphorylated GST-pK15 CT^N2 or the phosphorylated pK15 peptides, suspended in 50 mM Tris pH7.4, 300 mM NaCl, 1 mM DTT, were then added to the purified recombinant tSH2 domain (0.6 μM) together with a limiting amount of recombinant Src kinase (0.085 μM) in kinase buffer (20 mM Tris pH7.4, 20 mM NaCl, 1 mM DTT, 10 mM MgCl2, 0.2 mM ATP, 0.5 mM Sodium orthovanadate, 0.5 mM β-glycerophosphate) and the reaction allowed to proceed for 45 min. The reaction mix was then analysed by Western blot using an antibody to the phosphorylated Y^783 in the linker region of the PLCγ1 tSH2 domain and an antibody to the 5x His tag. To test the inhibitory effect of the phosphorylated 12mer pK15 peptide on the enhancement of PLCγ1 tSH2 domain phosphorylation induced by the pK15 35mer peptide, increasing concentrations (1.25–5.0 μM) of the 12mer peptide were added to a reaction mix containing the purified recombinant tSH2 domain (2.5 μM), the phosphorylated pK15 35mer (2.5 μM), and recombinant Src kinase (0.085 μM). Following a 45 min incubation at 37°C, the reaction mixture was analysed by Western blot as above.

[2] = test system: PLCγ1 cSH2 domain (vs nSH2 domain); assay: GST-pulldown, individual SH2 domains; assay type: binding; settings: in vitro phosphorylated; S-tagged individual SH2 domains transfected in HEK 293
Method: Fig 3 Contribution of individual PLCγ1 SH2 domains to the interaction with phosphorylated pK15. The pK15 CT fused to GST, its Y^481F mutant, or GST alone were bound to glutathione beads, phosphorylated in vitro (+) or left unphosphorylated (-), and a GST pulldown was performed 32h after transfection into HEK-293T cells of expression vectors for S-tagged full-length PLCγ1 (FL) (A) or PLCγ1 SA (B) containing the indicated mutations. (C) pK15 CT WT, its Y^481F mutant or GST were bound to glutathione beads, phosphorylated in vitro (+) or left unphosphorylated (-), and used for a GST pulldown assay 32h after transfecting HEK 293T cells with expression vectors for S-tagged individual PLCγ1 nSH2 or cSH2 domains. […]
HEK293T cells were washed once with cold PBS 30 hours after transfection, lysed in IP buffer (50 mM Tris pH7.6, 60 mM NaCl, 6.25 mM EDTA, 1% (v/v) glycerol, 0.04% (v/v) NP-40) on ice for 30 minutes, sonicated shortly and cleared by centrifugation for 10 minutes at 20.000g, 4°C. […] Beads were then washed 5 times in 500 μl IP buffer (or for purified proteins IP buffer with 200 mM NaCl), suspended in 10 μl of 5x Laemmli sample buffer (60 mM Tris pH6.8, 24% (v/v) glycerol, 2% (v/v) SDS, 5% (v/v) β-mercaptoethanol, 0.01% Bromphenol Blue) and analysed by western blot.

Row | Molecule | effect on Src-mediated phosphorylation of PLCγ1 tSH2 ([1]; listed as 12mer pK15 peptide) | effect on Src-mediated phosphorylation of PLCγ1 tSH2 ([1]; listed as 12mer peptide) | effect on Src-mediated phosphorylation of PLCγ1 tSH2 [1] | preference between SH2 domains (GST-pulldown) [2]
1 | DDLpYEEVLFPRN [pK15 12mer, phosphorylated peptide representing the last 12 amino acids of pK15 CT (DDLp…)] | moderate inhibition | cannot enhance the Src-mediated phosphorylation of PLCγ1 |  | 
2 | B1 |  |  | enhanced the Src-mediated phosphorylation of the PLCγ1 tSH2 domain | bound preferentially to the PLCγ1 cSH2 domain compared to its nSH2 domain
